Source: patent publication US20190262321A1, “METHODS OF TREATING DIABETIC NEPHROPATHY USING HPTPB INHIBITORS” (Aerpio Therapeutics, Inc., priority 2018, published 2019)

Columns and labels:
human subjects = test: Assessment of renal function indices (UACR) in subjects treated with compound AA34; format: in vivo; settings: for % Change in Geometric Mean (UACR): baseline to end of treatment (three months), patients with albuminuria at baseline
Protocol: The human subjects treated with compound AA34 were administered 15 mg of the compound subcutaneously twice a day for three months. One group of subjects received the compound and ranibizumab (RBZ; 0.3 mg monthly via intraocular injection), while the other group received only the compound with a sham intraocular injection. The subjects in the placebo arm received a placebo subcutaneously twice a day along with ranibizumab. […] Within the subjects that had albuminuria, 30% had microalbuminuria (>30 mg/g and <300 mg/g UACR) and 20% had macroalbuminuria (>300 mg/g UACR).
The results of the study are shown in FIG. 2 and TABLE 2 as the % change from baseline to end of treatment (three months) in geometric mean +95% confidence interval in the patients with albuminuria at baseline.

tissue factor = test: RT-PCR of kidney homogenate after LPS: tissue factor; format: in vivo, mice; settings: versus vehicle
Protocol: (§1) Male C57BL6 mice, 9-10 weeks old, were injected i.p. with 0.2 mg E. coli LPS per 25 g body weight. The mice were injected with compound AA34 (50 mg/kg, 50 μL) or the vehicle (50 μL) at the time of lipopolysaccharide (LPS) injection, 8 after LPS injection, and 16 hours after LPS injection. The mice were sacrificed 24 h after the LPS injection. The saline-injected mice were studied in parallel as controls. Phosphatase inhibition by compound AA34 reduced renal mRNA expression of various mediators of inflammation and coagulation, as shown in FIG. 8. The kidneys of the mice were analyzed for RNA level expression of various inflammatory mediators. […] TNFR1, PAI-1, and tissue factor were expressed mainly in the endothelium, the site of Tie2 expression.

TNFR1 = test: RT-PCR of kidney homogenate after LPS: TNFR1; format: in vivo, mice; settings: versus vehicle
Protocol: as §1

Male C57BL6 mice [1] = test: Endotoxin (LPS)-induced acute kidney injury: serum BUN and kidney histology; format: in vivo
Protocol: (§2) Male C57BL6 mice, 9-10 weeks old, were injected i.p. with 0.2 mg E. coli LPS per 25 g body weight. The mice were injected with compound AA34 (50 mg/kg, 50 μL) or the vehicle (50 μL) at the time of lipopolysaccharide (LPS) injection, 8 after LPS injection, and 16 hours after LPS injection. The mice were sacrificed 24 h after the LPS injection. The saline-injected mice were studied in parallel as controls. Serum samples from the mice were analyzed for BUN as a marker of kidney function.

Male C57BL6 mice [2] = test: Renal vascular leak after LPS (fluorescent dextrans, tomato lectin); format: in vivo; settings: 24 h after LPS
Protocol: as §2, with “Mice were injected with LPS and drug (compound AA34) versus the vehicle (LPS only). 2 min prior to sacrificing the animals at 24 h,” for “Serum samples from”, “injected with 70 kDa and 500 kDa fluorescent fixable dextrans by intravenous catheter.” for “analyzed for BUN as a marker of kidney function.”

Male C57BL6 mice [3] = test: LPS-induced renal neutrophil infiltration; format: in vivo; settings: 24 h after LPS injection
Protocol: as §2, with “controls.” for “controls. Serum samples from the mice were analyzed for BUN as a marker of kidney function.”

[4] = system: inducible nitric oxide synthase (iNOS); test: RT-PCR of kidney homogenate after LPS: iNOS; format: in vivo, mice; settings: versus vehicle
Protocol: as §1

Tie2 = test: Immunoprecipitation of kidney homogenate for Tie2 phosphorylation after LPS; format: in vivo, mice
Protocol: Male C57BL6 mice, 9-10 weeks old, were injected i.p. with 0.2 mg E. coli LPS per 25 g body weight. The mice were injected with compound AA34 (50 mg/kg, 50 μL) or the vehicle (50 μL) at the time of lipopolysaccharide (LPS) injection, 8 after LPS injection, and 16 hours after LPS injection. The mice were sacrificed 24 h after the LPS injection. The saline-injected mice were studied in parallel as controls. Immunoprecipitation of kidney homogenate was performed to analyze the extent of Tie2 phosphorylation in the drug versus vehicle groups. Immunoprecipitation of kidney homogenate was completed using anti-Tie2 Ab, which was probed using anti-phosphotyrosine Ab. Total Tie2 levels were equal in the drug-treated and vehicle-treated groups after being injected with LPS.

[5] = system: plasminogen activator inhibitor-1 (PAI-1); test: RT-PCR of kidney homogenate after LPS: PAI-1; format: in vivo, mice; settings: versus vehicle
Protocol: as §1

Male C57BL6 mice [6] = test: Renal apoptosis after LPS (DNA laddering, TUNEL staining); format: in vivo; settings: versus vehicle
Protocol: as §2, with “Apoptosis was detected in kidney homogenate using DNA laddering, which is” for “Serum samples from”, “result” for “mice were analyzed for BUN as a marker”, “apoptotic DNA fragmentation. […] Terminal deoxynucleotidyl transferase dUTP nick end labeling (TUNEL) staining was used to visualize the presence of apoptotic nuclei.” for “kidney function.”

[7] = Baseline UACR 30-300 mg/g (n 31)

COC(=O)N[C@@H](Cc1ccccc1)C(=O)N[C@@H](Cc1ccc(NS(=O)(=O)O)cc1)c1csc(-c2cccs2)n1 [AA34]
shift analysis: subjects with UACR 30-300 at Month 3/EOT (human subjects; [7]): 25 (81%) | shift analysis: subjects with UACR <30 at Month 3/EOT (human subjects; [7]): 4 (13%) | shift analysis: subjects with UACR >300 at Month 3/EOT (human subjects; [7]): 2 (6%) | shift analysis: subjects with UACR 30-300 at Month 3/EOT (human subjects; Baseline UACR <30 mg/g (n 43)): 2 (5%) | shift analysis: subjects with UACR <30 at Month 3/EOT (human subjects; Baseline UACR <30 mg/g (n 43)): 41 (95%) | shift analysis: subjects with UACR >300 at Month 3/EOT (human subjects; Baseline UACR <30 mg/g (n 43)): 0 | shift analysis: subjects with UACR 30-300 at Month 3/EOT (human subjects; Baseline UACR >300 mg/g (n 18)): 1 (6%) | shift analysis: subjects with UACR <30 at Month 3/EOT (human subjects; Baseline UACR >300 mg/g (n 18)): 1 (6%) | shift analysis: subjects with UACR >300 at Month 3/EOT (human subjects; Baseline UACR >300 mg/g (n 18)): 16 (89%) | % Change in Geometric Mean (UACR) (human subjects; 15 mg subcutaneously twice a day): −17.7% | % Change in Geometric Mean (UACR) (human subjects; 15 mg subcutaneously twice a day, listed as All Compound): −21.2% | reduction in the UACR compared to patients receiving placebo (human subjects; three months, 15 mg subcutaneously twice a day): ~20% | reduction of renal mRNA expression of tissue factor (tissue factor): about 0.8 fold | reduction of renal mRNA expression of TNFR1 (TNFR1): about 6 fold | morphologic tubular injury (histology) (Male C57BL6 mice [1]; 24 h after LPS injection, drug versus vehicle): less morphologic tubular injury | LPS-induced rise in BUN (Male C57BL6 mice [1]; serum, 24 h after LPS, 50 mg/kg at 0, 8 and 16 hours, versus vehicle, p=0.002): statistically reduced | LPS-induced extrusion of dye beyond the small peritubular capillaries (vascular leak) (Male C57BL6 mice [2]; 70 kDa and 500 kDa fluorescent fixable dextrans): markedly reduced | tomato lectin staining of peritubular capillaries (vascular integrity) (Male C57BL6 mice [2]): relatively preserved | reduction of renal neutrophil infiltration (Male C57BL6 mice [3]): over 50% | reduction of renal mRNA expression of iNOS [4]: about 1.5 fold | tyrosine phosphorylated Tie2 in kidney homogenate (Tie2; LPS+Compound AA34 versus LPS+vehicle, 8 h after the last dose): increased levels | Total Tie2 levels in kidney homogenate (Tie2; drug-treated versus vehicle-treated groups after LPS): equal | reduction of renal mRNA expression of PAI-1 [5]: about 5 fold | DNA laddering (apoptosis) in kidney homogenate (Male C57BL6 mice [6]): less DNA laddering | apoptosis (TUNEL staining of apoptotic nuclei) (Male C57BL6 mice [6]): less apoptosis
